As a reminder, the IC50 is the midpoint of a concentration-inhibition curve. A low value points to greater potency.

One assay has as its target T1, 5-HT1D receptor (Bos taurus, UniProt F1MGM3).
T1 construct: the caudate nuclei were dissected out and frozen at -70° C; tissue Pel-Freeze Biologicals; host or cells: bovine caudate nuclei, washed membranes
The assay is described as follows: [3H]5-HT binding to 5-HT1D sites in caudate nuclei membranes. To be noted: bovine caudate membranes, [3H]5-HT 1.7-1.9 nM, pH 7.4, 37° C. On the procedure:
The affinities of the compounds at the central 5-HT1D binding sites were determined using a modification of the binding assay described by Heuring and Peroutka (J. Neurosci. 7:894-903, 1987). Bovine brains were obtained from Pel-Freeze Biologicals, and the caudate nuclei were dissected out and frozen at -70° C. until the time that the membranes were prepared for the binding assays. At that time the tissues were homogenized in 40 volumes of ice-cold Tris-HCl buffer (50 mM, pH 7.4 at 22° C.) with a Techmar Tissumizer (setting 65 for 15 sec), and the homogenate was centrifuged at 39,800 g for 10 min. The resulting pellet was then resuspended in the same buffer, and the centrifugation and resuspension process was repeated three additional times to wash the membranes. Between the second and third washes the resuspended membranes were incubated for 10 min at 37° C. to facilitate the removal of endogenous 5-HT. the final pellet was resuspended in Tris buffer to a concentration of 25 mg of original tissue wet weight/ml for use in the binding assay. […] The assay tubes were incubated for 10 min at 37° C., and the contents were then rapidly filtered through GF/B filters (pretreated with 0.5% polyethylenimine), followed by four one-mL washes with ice-cold buffer. The radioactivity trapped by the filters was quantitated by liquid scintillation spectrometry, and specific [^3 H]5-HT binding to the 5HT1D sites were defined as the difference between [^3 H]5-HT bound in the presence and absence of 10 μM 5-HT.
The affinities of compounds at the 5-HT1D receptor are expressed as IC50 values, i.e., the concentration required to inhibit 50% of the binding. These values were determined from 12-point competition curves using nonlinear regression (SYSTAT, SYSTAT, Inc. Evanston, Ill.).

The target of a further assay is T2, 5-HT1A receptor (Rattus norvegicus, UniProt P19327).
T2 construct: the brains were rapidly chilled and dissected to obtain the hippocampi; from tissue; host or cells: hippocampi of male Sprague-Dawley rats (150-250 g), washed membranes
T2 sequence (P19327 1-422): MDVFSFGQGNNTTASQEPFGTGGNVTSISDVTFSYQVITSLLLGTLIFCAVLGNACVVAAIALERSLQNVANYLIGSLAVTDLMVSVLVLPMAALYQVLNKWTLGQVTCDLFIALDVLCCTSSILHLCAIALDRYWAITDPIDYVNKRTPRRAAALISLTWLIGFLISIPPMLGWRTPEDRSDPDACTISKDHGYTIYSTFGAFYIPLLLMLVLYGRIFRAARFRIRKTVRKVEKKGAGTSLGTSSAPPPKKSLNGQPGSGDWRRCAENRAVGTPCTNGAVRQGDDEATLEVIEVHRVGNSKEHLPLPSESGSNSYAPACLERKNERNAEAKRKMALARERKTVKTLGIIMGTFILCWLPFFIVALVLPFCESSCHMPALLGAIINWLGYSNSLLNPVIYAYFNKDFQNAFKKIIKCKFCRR
Nature of the assay: [3H]8-OH-DPAT binding to 5-HT1A sites in hippocampal membranes. On the set-up: species or system rat (male Sprague-Dawley). As to conditions: [3H]8-OH-DPAT 1.0 nM, pH 7.4, 37° C. On the procedure:
The affinities of the compounds at the central […] described by Taylor, et al., (J. Pharmacol. Exp. Ther. 236:118-125, 1986). Membranes for the binding assay were prepared from male Sprague-Dawley rats (150-250 g). The animals were killed by decapitation, and the brains were rapidly chilled and dissected to obtain the hippocampi. The hippocampi were either prepared that day or stored frozen (-70° C.) until the day of preparation. Membranes were prepared by homogenizing the tissue in 40 volumes of ice-cold Tris-HCl buffer (50 mM, pH 7.4 at 22° C.) using a Techmar Tissumizer (setting 65 for 15 sec), and the homogenate was centrifuged at 39800 xg for 10 min. The resulting pellet then resuspended in the same buffer, and the centrifugation and resuspension process was repeated three additional times to wash the membranes. Between the second and third washes the resuspended membranes were incubated for 10 min at 37° C. to facilitate the removal of endogenous ligands. The final pellet was resuspended in 67 mM Tris-HCl, pH 7.4, to a concentration of 2 mg of tissue original wet weight/200 μl. This homogenate was stored frozen (-70° C.) until the day of the binding assay. […] The assay tubes were incubated for 10 min at 37° C, and the contents were then rapidly filtered through GF/B filters (pretreated with 0.5% polyethylenimine), followed by four one-mL washes with ice cold buffer. The radioactivity trapped by the filters was quantitated by liquid scintillation spectrometry, and specific [^3 H]8-OH-DPAT binding to the 5-HT1A sites was defined as the difference between [^3 H]8-OH-DPAT bound in the presence and absence of 10 μM 5-HT.
The affinity of the particular compound at the 5-HT1A receptor is expressed as IC50 value, i.e., the concentration required to inhibit 50% of the binding. The IC50 values were determined from 12-point competition curves using nonlinear regression (SYSTAT, SYSTAT, INC., Evanston, Ill.).

Assay [1] relates to 5-hydroxyindole acetic acid (5HIAA). Nature of the assay: whole brain 5-hydroxyindoleacetic acid (5HIAA) concentration in vivo in rats. Also noted: species or system rat (male albino). As to conditions: 1 hour, series 0.03-3 mg/kg. On the procedure: In another experiment certain compounds of the Examples were evaluated to determine ability to affect the 5-hydroxyindoles serotonin and 5-hydroxyindole acetic acid (5HIAA), and serum corticosterone, in vivo. Male albino rats were injected subcutaneously with an aqueous solution of the compound. The pH of the solution was adjusted as necessary to solubilize the compound. A control of the solution without the test compound was similarly injected into a control animal. […] Trunk blood was collected and allowed to clot. After centrifugation, serum was stored frozen prior to analysis. The whole brain was removed and frozen on dry ice for storage prior to analysis. The serum corticosterone concentration was measured spectrofluorometrically using the procedure of Solem and Brinck-Johnson, "An Evaluation of a Method for Determination of Free Corticosteroids in Minute Quantities of Mouse Plasma", Scand. J. Clin. Lab. Invest., Suppl. 80, p. 1-14 (1965), incorporated herein by reference. 5-Hydroxyindoleacetic acid (5HIAA) concentration in whole brain was measured by liquid chromatography with electrochemical detection as reported by Fuller and Perry, "Effects of Buspirone and its Metabolite, 1-(2-pyrimidinyl)piperazine, on Brain Monoamines and Their Metabolites in Rats", J. Pharmacol. Exp. Ther., 248, p. 50-56 (1989), incorporated herein by reference.

A further assay has as its system serotonin. The assay is described as follows: whole brain serotonin concentration in vivo in rats. On the set-up: species or system rat (male albino). As to conditions: 1 hour, series 0.03-3 mg/kg. As for the experimental part: (§1) In another experiment certain compounds of the Examples were evaluated to determine ability to affect the 5-hydroxyindoles serotonin and 5-hydroxyindole acetic acid (5HIAA), and serum corticosterone, in vivo. Male albino rats were injected subcutaneously with an aqueous solution of the compound. The pH of the solution was adjusted as necessary to solubilize the compound. A control of the solution without the test compound was similarly injected into a control animal. The rats were decapitated one hour later. Trunk blood was collected and allowed to clot. After centrifugation, serum was stored frozen prior to analysis. The whole brain was removed and frozen on dry ice for storage prior to analysis. The serum corticosterone concentration was measured spectrofluorometrically using the procedure of Solem and Brinck-Johnson, "An Evaluation of a Method for Determination of Free Corticosteroids in Minute Quantities of Mouse Plasma", Scand. J. Clin. Lab. Invest., Suppl. 80, p. 1-14 (1965), incorporated herein by reference. 5-Hydroxyindoleacetic acid (5HIAA) concentration in whole brain was measured by liquid chromatography with electrochemical detection as reported by Fuller and Perry, "Effects of Buspirone and its Metabolite, 1-(2-pyrimidinyl)piperazine, on Brain Monoamines and Their Metabolites in Rats", J. Pharmacol. Exp. Ther., 248, p. 50-56 (1989), incorporated herein by reference.

The next assay deals with serum corticosterone. Nature of the assay: serum corticosterone concentration in vivo in rats. On the set-up: species or system rat (male albino). As to conditions: 1 hour, series 0.03-3 mg/kg. On the procedure:
as §1

T1 sequence (F1MGM3 1-403): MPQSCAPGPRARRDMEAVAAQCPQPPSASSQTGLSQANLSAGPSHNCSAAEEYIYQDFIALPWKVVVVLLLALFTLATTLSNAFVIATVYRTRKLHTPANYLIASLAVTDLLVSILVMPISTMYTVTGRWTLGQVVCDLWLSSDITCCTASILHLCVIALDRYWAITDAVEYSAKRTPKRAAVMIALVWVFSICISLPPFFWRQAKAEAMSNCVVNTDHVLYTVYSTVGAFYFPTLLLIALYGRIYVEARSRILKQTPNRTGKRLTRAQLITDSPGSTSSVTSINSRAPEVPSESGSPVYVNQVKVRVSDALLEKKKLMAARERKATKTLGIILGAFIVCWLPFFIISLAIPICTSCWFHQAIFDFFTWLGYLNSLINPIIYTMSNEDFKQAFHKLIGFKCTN

`CCCN(CCC)[C@H]1Cc2c[nH]c3ccc(C(=O)c4ccccc4)c(c23)C1` [Example 10, (4R)-(+)-6-benzoyl-4-(di-n-propylamino)-1,3,4,5-tetrahydrobenz[cd]indole]: the results for the IC50 at 5-HT1D receptor and on 5-HT1A receptor were 1.81 nM and 0.22 nM, respectively.

`CCCN(CCC)C1Cc2c[nH]c3ccc(C(=O)C(C)(C)C)c(c23)C1` (racemic) [Example 1, (±)-6-(2,2-Dimethylpropanoyl)-4-(di-n-propylamino)-1,3,4,5-tetrahydrobenz[cd]indole]: the values for the IC50 at 5-HT1D receptor and on 5-HT1A receptor were 2.01 nM and 0.5 nM, respectively. Further, the values for the 5HIAA in assay [1] (0.03 mg/kg s.c.), in assay [1] (0.3 mg/kg s.c.) and in assay [1] (3 mg/kg s.c.) were 1.58 ± 0.05 nmol/g, 1.31 ± 0.03 nmol/g and 1.23 ± 0.04 nmol/g, respectively. In addition, the Serotonin in the assay with serotonin (0.03 mg/kg s.c.) was 3.15 ± 0.13 nmol/g; in the assay on serotonin (0.3 mg/kg s.c.), 3.45 ± 0.10 nmol/g; with serotonin (3 mg/kg s.c.) it was 3.38 ± 0.08 nmol/g. The figures for the “Serum Corticosterone” value with serum corticosterone (0.03 mg/kg s.c.), with serum corticosterone (0.3 mg/kg s.c.) and in the assay on serum corticosterone (3 mg/kg s.c.) were 8.2 ± 3.2 microg./100 ml, 36.0 ± 4.8 microg./100 ml and 44.2 ± 1.5 microg./100 ml, respectively.

Source of the values: patent publication US5229409A, “6-substituted-tetrahydrobenz[cd]indoles” (Eli Lilly and Company, priority 1991, dated 1993).
